Data taken from the supplement of paper PMC10627819.

Tests used:
Assay in all cases: Bliss interaction score (quartile over a dose matrix) (fitness difference); higher = more antagonism (negative = synergy)
[1] = system: B. subtilis 168
Method in brief: (§1)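 Fitness was derived from optical density at entry into stationary phase, divided by the robust mean of the no-drug wells on the same plate. That reading was taken as OD595, and the ratio was capped at 1. Single-drug fitness was inferred from the combination data. The Bliss score, observed fitness minus the expected product of single-drug fitness, was summarised as quartiles over technical, biological and donor/recipient replicates.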

[2] = system: S. pneumoniae D39V
Method in brief: as §1

[3] = system: S. aureus Newman
Method in brief: as §1

[4] = system: S. aureus DSM 20231
Method in brief: as §1
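Also: first quartile when negative (synergy) and third quartile when positive (antagonism).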

| Structure (SMILES) | Bliss interaction score [1] | Bliss interaction score [2] | Bliss interaction score [3] | Bliss interaction score [4] |
| --- | --- | --- | --- | --- |
| CC1(C)S[C@@H]2[C@H](NC(=O)[C@H](N)c3ccc(O)cc3)C(=O)N2[C@H]1C(=O)O [Amoxicillin] + C1=CC(=CC(=C1)Cl)NN=C(C#N)C#N [CCCP] | 0.115 | -0.0978 | -0.0504 | -0.0295 |
| CC1(C)S[C@@H]2[C@H](NC(=O)[C@H](N)c3ccc(O)cc3)C(=O)N2[C@H]1C(=O)O [Amoxicillin] + CC1(C)S[C@@H]2[C@H](NC(=O)Cc3ccccc3)C(=O)N2[C@H]1C(=O)O [PenicillinG] | -0.186 | -0.0781 | 0.0595 | -0.0644 |
| CC1(C)S[C@@H]2[C@H](NC(=O)[C@H](N)c3ccc(O)cc3)C(=O)N2[C@H]1C(=O)O [Amoxicillin] + CC(=O)O[C@H]1C[C@@]2(C)[C@@H](C[C@@H](O)[C@H]3[C@@]4(C)CC[C@@H](O)[C@@H](C)[C@@H]4CC[C@@]32C)/C1=C(\CCC=C(C)C)C(=O)O [Fusidic acid] | 0.0608 | 0.143 | -0.0375 | 0.0361 |
| CC1(C)S[C@@H]2[C@H](NC(=O)[C@H](N)c3ccc(O)cc3)C(=O)N2[C@H]1C(=O)O [Amoxicillin] + CCP(CC)CC.CC(=O)OC[C@@H]1[C@H]([C@@H]([C@H]([C@@H](O1)[S-])OC(=O)C)OC(=O)C)OC(=O)C.[Au+] [Auranofin] | -0.0508 | 0.178 | -0.0817 | 0.0373 |
| CC1(C)S[C@@H]2[C@H](NC(=O)[C@H](N)c3ccc(O)cc3)C(=O)N2[C@H]1C(=O)O [Amoxicillin] + CC[C@H]1OC(=O)[C@H](C)C(=O)[C@H](C)[C@@H](O[C@@H]2O[C@H](C)C[C@H](N(C)C)[C@H]2O)[C@](C)(OC)C[C@@H](C)C(=O)[C@H](C)[C@H]2N(CCCCn3cnc(-c4cccnc4)c3)C(=O)O[C@]12C [Telithromycin] | -0.0851 | 0.0336 | -0.0609 | -0.0292 |
| CC1(C)S[C@@H]2[C@H](NC(=O)[C@H](N)c3ccc(O)cc3)C(=O)N2[C@H]1C(=O)O [Amoxicillin] + CC[C@H]1OC(=O)[C@H](C)[C@@H](O[C@H]2C[C@@](C)(OC)[C@@H](O)[C@H](C)O2)[C@H](C)[C@@H](O[C@@H]2O[C@H](C)C[C@H](N(C)C)[C@H]2O)[C@](C)(O)C[C@@H](C)C(=O)[C@H](C)[C@@H](O)[C@]1(C)O [Erythromycin] | 0.0751 | 0.0883 | -0.0553 | -0.023 |
| CC1(C)S[C@@H]2[C@H](NC(=O)[C@H](N)c3ccc(O)cc3)C(=O)N2[C@H]1C(=O)O [Amoxicillin] + CN(C)[C@@H]1C(O)=C(C(N)=O)C(=O)[C@@]2(O)C(O)=C3C(=O)c4c(O)ccc(Cl)c4[C@@](C)(O)[C@H]3C[C@@H]12 [Clortetracycline] | 0.164 | 0.168 | -0.0669 | 0.0294 |
| CC1(C)S[C@@H]2[C@H](NC(=O)[C@H](N)c3ccc(O)cc3)C(=O)N2[C@H]1C(=O)O [Amoxicillin] + CN[C@H](CC(C)C)C(=O)N[C@H]1C(=O)N[C@@H](CC(N)=O)C(=O)N[C@H]2C(=O)N[C@H]3C(=O)N[C@H](C(=O)N[C@H](C(=O)O)c4cc(O)cc(O)c4-c4cc3ccc4O)[C@H](O[C@H]3C[C@](C)(N)[C@@H](O)[C@H](C)O3)c3ccc(c(Cl)c3)Oc3cc2cc(c3O[C@@H]2O[C@H](CO)[C@@H](O)[C@H](O)[C@H]2O[C@H]2C[C@](C)(NCc3ccc(-c4ccc(Cl)cc4)cc3)[C@@H](O)[C@H](C)O2)Oc2ccc(cc2Cl)[C@H]1O [Oritavancin] | 0.0439 | -0.0312 | 0.131 | 0.0659 |
| CC1(C)S[C@@H]2[C@H](NC(=O)[C@H](N)c3ccc(O)cc3)C(=O)N2[C@H]1C(=O)O [Amoxicillin] + CO[C@@H]1[C@@H](OC(N)=O)[C@@H](O)[C@H](Oc2ccc3c(O)c(NC(=O)c4ccc(O)c(CC=C(C)C)c4)c(=O)oc3c2C)OC1(C)C [Novobiocin] | 0.0931 | 0.125 | -0.0655 | 0.0568 |
| CC1(C)S[C@@H]2[C@H](NC(=O)[C@H](N)c3ccc(O)cc3)C(=O)N2[C@H]1C(=O)O [Amoxicillin] + CO[C@@]12[C@H](COC(N)=O)C3=C(C(=O)C(C)=C(N)C3=O)N1C[C@@H]1N[C@@H]12 [MitomycinC] | 0.0389 | 0.0839 | 0.0558 | -0.0743 |
| CC1(C)S[C@@H]2[C@H](NC(=O)[C@H](N)c3ccc(O)cc3)C(=O)N2[C@H]1C(=O)O [Amoxicillin] + N[C@@H]1CONC1=O [CycloserineD] | 0.187 | -0.108 | 0.035 | -0.0593 |
| CC1(C)S[C@@H]2[C@H](NC(=O)[C@H](N)c3ccc(O)cc3)C(=O)N2[C@H]1C(=O)O [Amoxicillin] + O=C(O)[C@H]1/C(=C/CO)O[C@@H]2CC(=O)N21 [Clavulanic] | -0.152 | -0.0705 | -0.117 | -0.114 |
| CC1(C)S[C@@H]2[C@H](NC(=O)[C@H](N)c3ccc(O)cc3)C(=O)N2[C@H]1C(=O)O [Amoxicillin] + Oc1cc(Cl)ccc1Oc1ccc(Cl)cc1Cl [Triclosan] | -0.0443 | -0.0734 | 0.0346 | 0.028 |
| CO/N=C(\C(=O)N[C@@H]1C(=O)N2C(C(=O)[O-])=C(C[N+]3(C)CCCC3)CS[C@H]12)c1csc(N)n1 [Cefepime] + CC1(C)S[C@@H]2[C@H](NC(=O)Cc3ccccc3)C(=O)N2[C@H]1C(=O)O [PenicillinG] | -0.0668 | -0.0873 | -0.0463 | 0.0733 |
| CO/N=C(\C(=O)N[C@@H]1C(=O)N2C(C(=O)[O-])=C(C[N+]3(C)CCCC3)CS[C@H]12)c1csc(N)n1 [Cefepime] + CC(=O)O[C@H]1C[C@@]2(C)[C@@H](C[C@@H](O)[C@H]3[C@@]4(C)CC[C@@H](O)[C@@H](C)[C@@H]4CC[C@@]32C)/C1=C(\CCC=C(C)C)C(=O)O [Fusidic acid] | 0.0845 | 0.174 | 0.0735 | 0.062 |
| CO/N=C(\C(=O)N[C@@H]1C(=O)N2C(C(=O)[O-])=C(C[N+]3(C)CCCC3)CS[C@H]12)c1csc(N)n1 [Cefepime] + CCC[C@@H]1C[C@@H](C(=O)N[C@@H]([C@H]2O[C@H](SC)[C@H](O)[C@@H](O)[C@H]2O)[C@H](C)Cl)N(C)C1 [Clindamycin] | 0.0651 | 0.162 | 0.0778 | 0.0679 |
| CO/N=C(\C(=O)N[C@@H]1C(=O)N2C(C(=O)[O-])=C(C[N+]3(C)CCCC3)CS[C@H]12)c1csc(N)n1 [Cefepime] + CC[C@H]1OC(=O)[C@H](C)C(=O)[C@H](C)[C@@H](O[C@@H]2O[C@H](C)C[C@H](N(C)C)[C@H]2O)[C@](C)(OC)C[C@@H](C)C(=O)[C@H](C)[C@H]2N(CCCCn3cnc(-c4cccnc4)c3)C(=O)O[C@]12C [Telithromycin] | 0.122 | -0.0487 | 0.0252 | 0.0789 |
| CO/N=C(\C(=O)N[C@@H]1C(=O)N2C(C(=O)[O-])=C(C[N+]3(C)CCCC3)CS[C@H]12)c1csc(N)n1 [Cefepime] + CC[C@H]1OC(=O)[C@H](C)[C@@H](O[C@H]2C[C@@](C)(OC)[C@@H](O)[C@H](C)O2)[C@H](C)[C@@H](O[C@@H]2O[C@H](C)C[C@H](N(C)C)[C@H]2O)[C@](C)(O)C[C@@H](C)C(=O)[C@H](C)[C@@H](O)[C@]1(C)O [Erythromycin] | 0.0672 | 0.0938 | 0.0704 | 0.0701 |
| CO/N=C(\C(=O)N[C@@H]1C(=O)N2C(C(=O)[O-])=C(C[N+]3(C)CCCC3)CS[C@H]12)c1csc(N)n1 [Cefepime] + CC[C@H]1OC(=O)[C@H](C)[C@@H](O[C@H]2C[C@@](C)(OC)[C@@H](O)[C@H](C)O2)[C@H](C)[C@@H](O[C@@H]2O[C@H](C)C[C@H](N(C)C)[C@H]2O)[C@](C)(OC)C[C@@H](C)C(=O)[C@H](C)[C@@H](O)[C@]1(C)O [Clarithromycin] | 0.0395 | 0.07 | 0.0613 | 0.128 |
| CO/N=C(\C(=O)N[C@@H]1C(=O)N2C(C(=O)[O-])=C(C[N+]3(C)CCCC3)CS[C@H]12)c1csc(N)n1 [Cefepime] + CN(C)[C@@H]1C(O)=C(C(N)=O)C(=O)[C@@]2(O)C(O)=C3C(=O)c4c(O)ccc(Cl)c4[C@@](C)(O)[C@H]3C[C@@H]12 [Clortetracycline] | 0.0651 | 0.163 | 0.105 | 0.0809 |
| CO/N=C(\C(=O)N[C@@H]1C(=O)N2C(C(=O)[O-])=C(C[N+]3(C)CCCC3)CS[C@H]12)c1csc(N)n1 [Cefepime] + CN[C@H](CC(C)C)C(=O)N[C@H]1C(=O)N[C@@H](CC(N)=O)C(=O)N[C@H]2C(=O)N[C@H]3C(=O)N[C@H](C(=O)N[C@H](C(=O)O)c4cc(O)cc(O)c4-c4cc3ccc4O)[C@H](O[C@H]3C[C@](C)(N)[C@@H](O)[C@H](C)O3)c3ccc(c(Cl)c3)Oc3cc2cc(c3O[C@@H]2O[C@H](CO)[C@@H](O)[C@H](O)[C@H]2O[C@H]2C[C@](C)(NCc3ccc(-c4ccc(Cl)cc4)cc3)[C@@H](O)[C@H](C)O2)Oc2ccc(cc2Cl)[C@H]1O [Oritavancin] | 0.0342 | -0.0811 | 0.0749 | 0.0977 |
| CO/N=C(\C(=O)N[C@@H]1C(=O)N2C(C(=O)[O-])=C(C[N+]3(C)CCCC3)CS[C@H]12)c1csc(N)n1 [Cefepime] + CO/N=C(\C(=O)N[C@@H]1C(=O)N2C(C(=O)O)=C(COC(C)=O)CS[C@H]12)c1csc(N)n1 [Cefotaxime] | 0.0354 | 0.0698 | 0.0764 | 0.0767 |
| CO/N=C(\C(=O)N[C@@H]1C(=O)N2C(C(=O)[O-])=C(C[N+]3(C)CCCC3)CS[C@H]12)c1csc(N)n1 [Cefepime] + CO/N=C(\C(=O)N[C@@H]1C(=O)N2C(C(=O)O)=C(COC(N)=O)CS[C@H]12)c1ccco1 [Cefuroxime] | -0.0417 | -0.0435 | 0.0741 | 0.0866 |
| CCCSc1nc(N[C@@H]2C[C@H]2c2ccc(F)c(F)c2)c2nnn([C@@H]3C[C@H](OCCO)[C@@H](O)[C@H]3O)c2n1 [Ticagrelor] + CC1=C\[C@@H](O)CC(=O)Cc2nc(co2)C(=O)N2CCC=C2C(=O)O[C@H](C(C)C)[C@H](C)/C=C/C(=O)NC\C=C\1 [Virginiamycin M1] | – | – | – | 0.253 |
| CCCSc1nc(N[C@@H]2C[C@H]2c2ccc(F)c(F)c2)c2nnn([C@@H]3C[C@H](OCCO)[C@@H](O)[C@H]3O)c2n1 [Ticagrelor] + CN(C)c1cc(NC(=O)CNC(C)(C)C)c(O)c2c1C[C@H]1C[C@H]3[C@H](N(C)C)C(O)=C(C(N)=O)C(=O)[C@@]3(O)C(O)=C1C2=O [Tigecycline] | – | – | – | 0.216 |
| CCCSc1nc(N[C@@H]2C[C@H]2c2ccc(F)c(F)c2)c2nnn([C@@H]3C[C@H](OCCO)[C@@H](O)[C@H]3O)c2n1 [Ticagrelor] + CN[C@H](CC(C)C)C(=O)N[C@H]1C(=O)N[C@@H](CC(N)=O)C(=O)N[C@H]2C(=O)N[C@H]3C(=O)N[C@H](C(=O)N[C@H](C(=O)O)c4cc(O)cc(O)c4-c4cc3ccc4O)[C@H](O)c3ccc(c(Cl)c3)Oc3cc2cc(c3O[C@@H]2O[C@H](CO)[C@@H](O)[C@H](O)[C@H]2O[C@H]2C[C@](C)(N)[C@H](O)[C@H](C)O2)Oc2ccc(cc2Cl)[C@H]1O [Vancomycin] | – | – | – | 0.257 |
| CCCSc1nc(N[C@@H]2C[C@H]2c2ccc(F)c(F)c2)c2nnn([C@@H]3C[C@H](OCCO)[C@@H](O)[C@H]3O)c2n1 [Ticagrelor] + COc1cc(Cc2cnc(N)nc2N)cc(OC)c1OC [Trimethoprim] | – | – | – | -0.152 |
| CCCSc1nc(N[C@@H]2C[C@H]2c2ccc(F)c(F)c2)c2nnn([C@@H]3C[C@H](OCCO)[C@@H](O)[C@H]3O)c2n1 [Ticagrelor] + Oc1cc(Cl)ccc1Oc1ccc(Cl)cc1Cl [Triclosan] | – | – | – | 0.247 |
